Laboratory results taken from ChEMBL document CHEMBL3871297, “Squarate-based carbocyclic nucleosides: Syntheses, computational analyses and anticancer/antiviral evaluation” (2017).

Columns and labels:
Type in all cases: functional
[1] = Cytotoxicity against human T47D cells assessed as cell growth at 10 uM after 2 days by SRB assay relative to control; conditions: 48 h, read-out: Activity
[2] = Cytotoxicity against human SNB75 cells assessed as cell growth at 10 uM after 2 days by SRB assay relative to control; conditions: SNB-75, 48 h, read-out: Activity
[3] = Cytotoxicity against human UO31 cells assessed as cell growth at 10 uM after 2 days by SRB assay relative to control; conditions: UO-31, 48 h, read-out: Activity
[4] = Cytotoxicity against human EKVX cells assessed as cell growth at 10 uM after 2 days by SRB assay relative to control; conditions: 48 h, read-out: Activity
[5] = Cytotoxicity against human M14 cells assessed as cell growth at 10 uM after 2 days by SRB assay relative to control; conditions: M14, 48 h, read-out: Activity
[6] = Cytotoxicity against human CCRF-CEM cells assessed as cell growth at 10 uM after 2 days by SRB assay relative to control; conditions: 48 h, read-out: Activity
[7] = Cytotoxicity against human KM12 cells assessed as cell growth at 10 uM after 2 days by SRB assay relative to control; conditions: KM12, 48 h, read-out: Activity
[8] = Cytotoxicity against human HCT15 cells assessed as cell growth at 10 uM after 2 days by SRB assay relative to control; conditions: HCT-15, 48 h, read-out: Activity
[9] = Cytotoxicity against human MALME-3M cells assessed as cell growth at 10 uM after 2 days by SRB assay relative to control; conditions: 48 h, read-out: Activity
[10] = Cytotoxicity against human HOP62 cells assessed as cell growth at 10 uM after 2 days by SRB assay relative to control; conditions: HOP-62, 48 h, read-out: Activity
[11] = Cytotoxicity against human OVCAR8 cells assessed as cell growth at 10 uM after 2 days by SRB assay relative to control; conditions: OVCAR-8, 48 h, read-out: Activity
[12] = Cytotoxicity against human Hs 578T cells assessed as cell growth at 10 uM after 2 days by SRB assay relative to control; conditions: 48 h, read-out: Activity
[13] = Cytotoxicity against human NCI/ADR-RES cells assessed as cell growth at 10 uM after 2 days by SRB assay relative to control; conditions: 48 h, read-out: Activity
[14] = Cytotoxicity against human HT-29 cells assessed as cell growth at 10 uM after 2 days by SRB assay relative to control; conditions: HT-29, 48 h, read-out: Activity
[15] = Cytotoxicity against human IGROV1 cells assessed as cell growth at 10 uM after 2 days by SRB assay relative to control; conditions: IGROV-1, 48 h, read-out: Activity
[16] = Cytotoxicity against human TK10 cells assessed as cell growth at 10 uM after 2 days by SRB assay relative to control; conditions: TK-10, 48 h, read-out: Activity
[17] = Cytotoxicity against human SF539 cells assessed as cell growth at 10 uM after 2 days by SRB assay relative to control; conditions: SF-539, 48 h, read-out: Activity
[18] = Cytotoxicity against human SKOV3 cells assessed as cell growth at 10 uM after 2 days by SRB assay relative to control; conditions: SK-OV-3, 48 h, read-out: Activity
[19] = Cytotoxicity against human RXF393 cells assessed as cell growth at 10 uM after 2 days by SRB assay relative to control; conditions: RXF 393, 48 h, read-out: Activity
[20] = Cytotoxicity against human HL-60(TB) cells assessed as cell growth at 10 uM after 2 days by SRB assay relative to control; conditions: HL-60, 48 h, read-out: Activity
[21] = Cytotoxicity against human SW620 cells assessed as cell growth at 10 uM after 2 days by SRB assay relative to control; conditions: SW-620, 48 h, read-out: Activity
[22] = Cytotoxicity against human HCC2998 cells assessed as cell growth at 10 uM after 2 days by SRB assay relative to control; conditions: HCC 2998, 48 h, read-out: Activity
[23] = Cytotoxicity against human NCI-H522 cells assessed as cell growth at 10 uM after 2 days by SRB assay relative to control; conditions: NCI-H522, 48 h, read-out: Activity
[24] = Cytotoxicity against human SN12C cells assessed as cell growth at 10 uM after 2 days by SRB assay relative to control; conditions: 48 h, read-out: Activity
[25] = Cytotoxicity against human NCI-H460 cells assessed as cell growth at 10 uM after 2 days by SRB assay relative to control; conditions: NCI-H460, 48 h, read-out: Activity
[26] = Cytotoxicity against human NCI-H23 cells assessed as cell growth at 10 uM after 2 days by SRB assay relative to control; conditions: NCI-H23, 48 h, read-out: Activity
[27] = Cytotoxicity against human UACC257 cells assessed as cell growth at 10 uM after 2 days by SRB assay relative to control; conditions: UACC-257, 48 h, read-out: Activity
[28] = Cytotoxicity against human MCF7 cells assessed as cell growth at 10 uM after 2 days by SRB assay relative to control; conditions: MCF7, 48 h, read-out: Activity
[29] = Cytotoxicity against human SK-MEL-5 cells assessed as cell growth at 10 uM after 2 days by SRB assay relative to control; conditions: SK-MEL-5, 48 h, read-out: Activity
[30] = Cytotoxicity against human 786-0 cells assessed as cell growth at 10 uM after 2 days by SRB assay relative to control; conditions: 786-0, 48 h, read-out: Activity
[31] = Cytotoxicity against human A549 cells assessed as cell growth at 10 uM after 2 days by SRB assay relative to control; conditions: A549, 48 h, read-out: Activity
[32] = Cytotoxicity against human SK-MEL-28 cells assessed as cell growth at 10 uM after 2 days by SRB assay relative to control; conditions: SK-MEL-28, 48 h, read-out: Activity
[33] = Cytotoxicity against human SF295 cells assessed as cell growth at 10 uM after 2 days by SRB assay relative to control; conditions: SF-295, 48 h, read-out: Activity
[34] = Cytotoxicity against human SF268 cells assessed as cell growth at 10 uM after 2 days by SRB assay relative to control; conditions: SF-268, 48 h, read-out: Activity
[35] = Cytotoxicity against human LOXIMVI cells assessed as cell growth at 10 uM after 2 days by SRB assay relative to control; conditions: LOX IMVI, 48 h, read-out: Activity
[36] = Cytotoxicity against human NCI-H226 cells assessed as cell growth at 10 uM after 2 days by SRB assay relative to control; conditions: NCI-H226, 48 h, read-out: Activity
[37] = Cytotoxicity against human MDA-MB-435 cells assessed as cell growth at 10 uM after 2 days by SRB assay relative to control; conditions: MDA-MB-435, 48 h, read-out: Activity
[38] = Cytotoxicity against human K562 cells assessed as cell growth at 10 uM after 2 days by SRB assay relative to control; conditions: K562, 48 h, read-out: Activity

| Structure (SMILES) | growth at 10 µM [1] [%] | growth at 10 µM [2] [%] | growth at 10 µM [3] [%] | growth at 10 µM [4] [%] | growth at 10 µM [5] [%] | growth at 10 µM [6] [%] | growth at 10 µM [7] [%] | growth at 10 µM [8] [%] | growth at 10 µM [9] [%] | growth at 10 µM [10] [%] | growth at 10 µM [11] [%] | growth at 10 µM [12] [%] | growth at 10 µM [13] [%] | growth at 10 µM [14] [%] | growth at 10 µM [15] [%] | growth at 10 µM [16] [%] | growth at 10 µM [17] [%] | growth at 10 µM [18] [%] | growth at 10 µM [19] [%] | growth at 10 µM [20] [%] | further results |
| --- | --- | --- | --- | --- | --- | --- | --- | --- | --- | --- | --- | --- | --- | --- | --- | --- | --- | --- | --- | --- | --- |
| O=c1c(O)c(N[C@H]2C=C[C@@H](CO)C2)c1=O | 107 | 103 | 103 | 129 | 111 | 116 | 116 | 134 | 115 | 101 | 107 | 146 | 116 | 105 | 111 | 132 | 114 | 109 | 166 | 100 | growth at 10 µM [21]: 112%; growth at 10 µM [22]: 106%; growth at 10 µM [23]: 91.6%; growth at 10 µM [24]: 120%; growth at 10 µM [25]: 114%; growth at 10 µM [26]: 107%; growth at 10 µM [27]: 100%; growth at 10 µM [28]: 107%; growth at 10 µM [29]: 106%; growth at 10 µM [30]: 102%; growth at 10 µM [31]: 108%; growth at 10 µM [32]: 140%; growth at 10 µM [33]: 73.5%; growth at 10 µM [34]: 117%; growth at 10 µM [35]: 117%; growth at 10 µM [36]: 157%; growth at 10 µM [37]: 120%; growth at 10 µM [38]: 104% |
| COc1c(N[C@H]2C=C[C@@H](CO)C2)c(=O)c1=O | 106 | 107 | 88.3 | 125 | 97.1 | 108 | 87.7 | 111 | 109 | 96 | 94.6 | 114 | 107 | 113 | 93 | 105 | 101 | 110 | 126 | 96.4 | growth at 10 µM [21]: 105%; growth at 10 µM [22]: 107%; growth at 10 µM [23]: 86.5%; growth at 10 µM [24]: 112%; growth at 10 µM [25]: 105%; growth at 10 µM [26]: 108%; growth at 10 µM [27]: 89%; growth at 10 µM [28]: 94.2%; growth at 10 µM [29]: 103%; growth at 10 µM [30]: 98.5%; growth at 10 µM [31]: 97.8%; growth at 10 µM [32]: 125%; growth at 10 µM [33]: 118%; growth at 10 µM [34]: 112%; growth at 10 µM [35]: 97.8%; growth at 10 µM [36]: 105%; growth at 10 µM [37]: 118%; growth at 10 µM [38]: 111% |
| Nc1c(N[C@H]2C=C[C@@H](CO)C2)c(=O)c1=O | 105 | 111 | 84.6 | 121 | 101 | 89.3 | 122 | 103 | 100 | 96.4 | 92.8 | 129 | 108 | 110 | 96.2 | 115 | 98.3 | 112 | 143 | 96.7 | growth at 10 µM [21]: 105%; growth at 10 µM [22]: 107%; growth at 10 µM [23]: 90.1%; growth at 10 µM [24]: 105%; growth at 10 µM [25]: 104%; growth at 10 µM [26]: 111%; growth at 10 µM [27]: 97.7%; growth at 10 µM [28]: 101%; growth at 10 µM [29]: 104%; growth at 10 µM [30]: 106%; growth at 10 µM [31]: 97.9%; growth at 10 µM [32]: 128%; growth at 10 µM [33]: 128%; growth at 10 µM [34]: 165%; growth at 10 µM [35]: 96.4%; growth at 10 µM [36]: 107%; growth at 10 µM [37]: 114%; growth at 10 µM [38]: 99.6% |
